The values that follow come from patent US12146183B2, “Compound and a method for identifying a protein using said compound” (CITY UNIVERSITY OF HONG KONG, priority 2020, dated 2024).

Type in all cases: biochemical
One experiment has as its target T1, Sirt3 (Homo sapiens, UniProt Q9NTG7).
T1 construct: made in house
T1 sequence (Q9NTG7 1-399): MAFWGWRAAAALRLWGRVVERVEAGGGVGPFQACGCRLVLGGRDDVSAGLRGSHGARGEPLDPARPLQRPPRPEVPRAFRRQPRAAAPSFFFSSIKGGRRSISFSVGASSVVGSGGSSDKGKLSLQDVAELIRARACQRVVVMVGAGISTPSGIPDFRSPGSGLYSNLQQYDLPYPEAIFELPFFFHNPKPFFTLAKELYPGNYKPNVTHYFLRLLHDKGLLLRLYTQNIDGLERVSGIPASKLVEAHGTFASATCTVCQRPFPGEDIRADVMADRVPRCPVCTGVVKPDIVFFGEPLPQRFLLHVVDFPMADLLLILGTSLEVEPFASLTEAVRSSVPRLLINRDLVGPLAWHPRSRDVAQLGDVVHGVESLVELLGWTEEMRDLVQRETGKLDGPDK
Nature of the experiment: Fluorimeter delipoylation assay of probe KTlip with Sirt3. The settings on record: Sirt3, 37° C., HEPES buffer pH 8.0. The method, then: (§1) The capacity of HDACs to recognize and remove the lipoyl group of KTlip was examined by a fluorimeter assay. KTlip was incubated with various HDACs at 37° C. in HEPES buffer (pH 8.0). The fluorescence of the enzymatic reactions was then measured accordingly. […] Further HPLC and MS analysis confirmed that the molecular weight of the newly generated peak corresponded to the expected tandem de-lipoylated/exchanged product. […] After enzymatic reaction with Sirt2, a shift of peak absorption from 380 nm to 480 nm was clearly observed. Through detailed kinetic study, the first-order rate constant of the reaction was determined to be 0.013 min-1. The Km value of KTlip obtained from the fluorescent method matched well with that from the traditional HPLC method, underscoring that probe KTlip can serve as a useful tool for detecting enzymatic delipoylation activity.
(§2) The probe KTlip was incubated with sirtuin and NAD+ at 37° C. in 20 mM HEPES buffer (pH 8.0) containing 150 mM NaCl, 1 mM MgCl2, and 2.7 mM KCl. The enzymatic reaction volume was 50 μL. When the enzymatic reaction was complete, the reaction was applied for absorption and fluorescence measurement. The parameter set for absorbance measurement was as follows: UV-visible light, collection region: 300-550 nm. The parameter set for fluorescence measurements was as follows: λex=480 nm, slit width: 5 nm, collection region: 510-600 nm.

The target of the next experiment is T2, Sirt6 (Homo sapiens, UniProt Q8N6T7).
T2 construct: made in house
T2 sequence (Q8N6T7 whole entry, species assumed): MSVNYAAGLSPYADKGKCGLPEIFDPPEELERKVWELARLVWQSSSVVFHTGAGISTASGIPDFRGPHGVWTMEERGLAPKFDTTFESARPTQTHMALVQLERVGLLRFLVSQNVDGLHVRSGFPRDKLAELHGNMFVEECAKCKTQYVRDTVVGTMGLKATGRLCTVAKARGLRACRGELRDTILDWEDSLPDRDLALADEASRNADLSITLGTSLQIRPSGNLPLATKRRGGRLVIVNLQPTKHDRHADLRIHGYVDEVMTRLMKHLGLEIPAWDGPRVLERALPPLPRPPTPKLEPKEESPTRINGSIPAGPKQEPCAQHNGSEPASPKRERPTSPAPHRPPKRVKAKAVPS
Nature of the experiment: Fluorimeter delipoylation assay of probe KTlip with Sirt6. The settings on record: Sirt6, 37° C., HEPES buffer pH 8.0. The method, then:
as §1, §2

For a further experiment, the target named is T3, Sirt1 (Homo sapiens, UniProt Q96EB6).
T3 construct: made in house
T3 sequence (Q96EB6 1-747): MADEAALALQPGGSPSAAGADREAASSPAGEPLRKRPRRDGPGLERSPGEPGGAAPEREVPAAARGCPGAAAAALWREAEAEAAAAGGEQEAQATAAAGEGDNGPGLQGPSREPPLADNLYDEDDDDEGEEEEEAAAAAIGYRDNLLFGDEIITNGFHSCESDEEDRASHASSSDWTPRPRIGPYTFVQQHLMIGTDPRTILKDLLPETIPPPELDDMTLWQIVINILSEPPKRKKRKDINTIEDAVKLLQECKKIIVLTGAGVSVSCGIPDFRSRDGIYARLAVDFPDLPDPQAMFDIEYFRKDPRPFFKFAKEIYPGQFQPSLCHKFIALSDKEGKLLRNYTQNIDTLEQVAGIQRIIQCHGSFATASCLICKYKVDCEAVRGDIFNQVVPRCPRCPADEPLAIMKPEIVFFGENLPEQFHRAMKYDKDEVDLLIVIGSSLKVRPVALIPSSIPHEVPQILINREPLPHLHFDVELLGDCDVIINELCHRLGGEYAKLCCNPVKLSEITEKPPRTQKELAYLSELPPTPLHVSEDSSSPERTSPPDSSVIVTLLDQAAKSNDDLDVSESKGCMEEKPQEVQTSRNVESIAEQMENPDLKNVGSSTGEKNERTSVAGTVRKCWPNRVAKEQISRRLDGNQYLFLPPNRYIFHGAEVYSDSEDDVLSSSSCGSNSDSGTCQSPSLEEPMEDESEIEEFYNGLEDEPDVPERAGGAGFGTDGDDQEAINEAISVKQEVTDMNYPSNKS
In words: Fluorimeter delipoylation assay of probe KTlip with Sirt1. The settings on record: Sirt1, 37° C., HEPES buffer pH 8.0. The method, then:
as §1, §2

Experiment [1] concerns the target T4, Sirt2 (Homo sapiens, UniProt Q8IXJ6).
T4 construct: made in house
T4 sequence (Q8IXJ6 1-389): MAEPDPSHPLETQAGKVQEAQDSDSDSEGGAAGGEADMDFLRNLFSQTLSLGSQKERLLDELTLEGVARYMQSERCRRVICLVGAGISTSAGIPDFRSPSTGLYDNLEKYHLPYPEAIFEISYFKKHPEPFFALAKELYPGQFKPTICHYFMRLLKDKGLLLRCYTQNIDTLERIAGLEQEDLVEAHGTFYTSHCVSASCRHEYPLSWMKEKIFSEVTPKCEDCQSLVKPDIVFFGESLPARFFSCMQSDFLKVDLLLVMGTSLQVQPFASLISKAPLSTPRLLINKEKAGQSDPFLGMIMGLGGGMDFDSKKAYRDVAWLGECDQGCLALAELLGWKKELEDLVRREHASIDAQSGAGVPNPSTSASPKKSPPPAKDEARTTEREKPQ
In words: Fluorimeter delipoylation assay of probe KTlip with Sirt2. The method, then: as §1, with “The Km value of KTlip obtained from the fluorescent method matched well with that from the traditional HPLC method, underscoring that probe KTlip can serve as a useful tool for detecting enzymatic delipoylation activity.” left out
The probe KTlip was incubated with sirtuin and NAD+ at 37° C. in 20 mM HEPES buffer (pH 8.0) containing 150 mM NaCl, 1 mM MgCl2, and 2.7 mM KCl. […] When the enzymatic reaction was complete, the reaction was applied for absorption and fluorescence measurement. The parameter set for absorbance measurement was as follows: UV-visible light, collection region: 300-550 nm. The parameter set for fluorescence measurements was as follows: λex=480 nm, slit width: 5 nm, collection region: 510-600 nm.
The rate constant was calculated by fitting the fluorescence data to the following equation: Fluorescence intensity=1−exp(−kt) Enzymatic Reaction with Lipoylated Peptides.

In another experiment the target is T5, Sirt5 (Homo sapiens, UniProt Q9NXA8).
T5 construct: made in house
T5 sequence (Q9NXA8 37-310): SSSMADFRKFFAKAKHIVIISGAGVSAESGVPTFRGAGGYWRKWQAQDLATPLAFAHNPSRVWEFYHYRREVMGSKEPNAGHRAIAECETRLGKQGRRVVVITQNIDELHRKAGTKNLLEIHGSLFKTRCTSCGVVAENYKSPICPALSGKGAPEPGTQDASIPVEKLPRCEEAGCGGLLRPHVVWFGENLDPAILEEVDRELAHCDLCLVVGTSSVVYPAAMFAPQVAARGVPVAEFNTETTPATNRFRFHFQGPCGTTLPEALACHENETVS
In words: Fluorimeter delipoylation assay of probe KTlip with Sirt5. The settings on record: Sirt5, 37° C., HEPES buffer pH 8.0. The method, then:
as §1, §2

The next experiment addresses T6, HDAC8 (Homo sapiens, UniProt Q9BY41).
T6 sequence (Q9BY41 1-377): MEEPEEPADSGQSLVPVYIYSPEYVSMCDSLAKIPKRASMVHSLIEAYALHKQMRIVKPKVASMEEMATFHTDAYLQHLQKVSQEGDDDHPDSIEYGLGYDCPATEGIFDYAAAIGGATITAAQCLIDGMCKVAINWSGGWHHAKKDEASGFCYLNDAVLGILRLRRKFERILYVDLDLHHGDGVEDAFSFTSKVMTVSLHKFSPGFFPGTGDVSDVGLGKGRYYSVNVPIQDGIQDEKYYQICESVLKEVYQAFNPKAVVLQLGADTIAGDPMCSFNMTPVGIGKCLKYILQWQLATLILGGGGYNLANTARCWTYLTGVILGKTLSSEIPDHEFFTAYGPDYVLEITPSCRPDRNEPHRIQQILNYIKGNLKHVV
Nature of the experiment: Fluorimeter and HPLC/MS delipoylation assay of probe KTlip with HDAC8. The method, then: as §1, §2

In experiment [2] the target is T4, Sirt2. Nature of the experiment: HPLC delipoylation assay of lipoylated peptides with Sirt2. The settings on record: Sirt2 + NAD+, 37° C., monitored at 280 nm after 40 min. The method, then:
A total of 11 lipoylated peptides (KAlip-1 to KAlip-11) were synthesised. The peptide sequences were selected from proteins that have been reported as being lipoylated (PDH, KDH, BCKDH, and GCV) and non-lipoylated proteins (e.g., histone). The peptides were synthesized with a standard Fmoc solid phase synthesis approach and characterized by LC-MS. The delipoylation activity was then determined by an HPLC assay. Compared with non-putative peptides, putative lipoylated peptides appeared to be more efficiently hydrolyzed by Sirt2. For example, the delipoylated product of KAlip-1 (derived from histone) after 40 min was determined to be 59%, which is less than that of putative lipoylated substrates such as KAlip-5 and KAlip-6 (derived from PDH).
The lipoylated peptides KAlip-1 to -11 were incubated with sirtuin and cofactor NAD+ at 37° C. in 20 mM HEPES buffer (pH 8.0) containing 150 mM NaCl, 1 mM MgCl2, and 2.7 mM KCl. The reaction volume was set to 50 μL. At each specific reaction time point, the reaction mixtures were quenched by adding 250 μL of methanol. The reactions were vortexed and centrifuged. Supernatant was collected and then analysed by reverse phase HPLC. The new peak generated was collected for ESI-MS or MALDI-TOF-MS analysis directly.

The target of experiment [3] is T4, Sirt2. In words: Steady-state kinetic study of lipoylated peptides with Sirt2 (HPLC). The settings on record: relative to KAlip-1. The method, then:
The delipoylation activity of HDAC8 was further examined using KAlip-5 and KAlip-1. […] A more detailed assessment of the enzymatic delipoylation reaction was performed. Time-dependent experiments and steady-state kinetics studies were conducted of KAlip-1, 5, 8, and 10 with Sirt2 (Table 1).
To determine the values of kcat, and Km, purified Sirt2 with 400 μM NAD+ was incubated with different concentrations of lipoylated peptide (0-120 μM) in 20 mM HEPES buffer (pH 8.0) containing 150 mM NaCl, 1 mM MgCl2, and 2.7 mM KCl at 37° C. for 10 min (KAlip-1 and KAlip-10) or 5 min (KAlip-5 and KAlip-8). The reactions were quenched by adding 250 μL of methanol and then applied for HPLC analysis with a linear gradient of 5% to 85% B (acetonitrile) for 30 min. The generated delipoylated product was quantified based on the peak area monitored at 280 nm. The kcat, and Km, values were calculated by curve-fitting Vinitiai/[E] versus [S]. The experiments were conducted in duplicate.

Turning to `CC(C)(C)OC(=O)N[C@@H](CCCCNC(=O)CCCCC1CCSS1)C(=O)NCCOCCOc1ccc([N+](=O)[O-])c2nonc12` (stereo partly shown) [KTlip], the Fluorescence increase entry is on record as “did not show a noticeable fluorescence increase” on Sirt3; “did not show a noticeable fluorescence increase” at Sirt6; 60 fold on Sirt2 [1] (Sirt2, 37° C., HEPES buffer pH 8.0); “did not show a noticeable fluorescence increase” at Sirt5; “did not show a noticeable fluorescence increase” on HDAC8 (HDAC8, 37° C., HEPES buffer pH 8.0). Moreover, the Fluorescence signal result on Sirt1 is given as “much lower fluorescence signal”. Moreover, the “First-order rate constant of the reaction” value at Sirt2 [1] (Sirt2, fluorescence fit) came to 0.013 min⁻¹. In addition, the “De-lipoylated product (HPLC and MS analysis)” value on HDAC8 (HDAC8 enzymatic reaction conditions) is “No de-lipoylated product was observed”.
Turning to ALESVK(lip)AASEWW [KAlip-10], the “Delipoylation product (HPLC yield of delipoylated product)” value on Sirt2 [2] is on record as 71%. For the same compound, the “Catalytic efficiency of Sirt2 compared with nonputative H3K9 lipoyl peptide (KAlip-1)” value at Sirt2 [3] is listed as “slightly higher”.
